According to PubChem BioAssay AID1645866 (Buhrlage Lab, Dana-Farber Cancer Institute and Novartis …, 2021):
Active and inactive are the calls of the source.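 How the source made its calls: active means in confirmatory dose-response testing, peak deubiquitinase inhibition of 30% or more; inactive means the rest.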

molecular target: Ubiquitin carboxyl-terminal hydrolase 28 (Homo sapiens) (UniProt Q96RU2); experiment: Ubiquitin-specific peptidase 28 DUB inhibitors, biochemical concentration-dependence assay, validation of primary screening hits (AID 1645866); settings: purified USP28, ubiquitin-rhodamine fluorescence, 30 min
Sequence (Q96RU2 whole entry, looked up): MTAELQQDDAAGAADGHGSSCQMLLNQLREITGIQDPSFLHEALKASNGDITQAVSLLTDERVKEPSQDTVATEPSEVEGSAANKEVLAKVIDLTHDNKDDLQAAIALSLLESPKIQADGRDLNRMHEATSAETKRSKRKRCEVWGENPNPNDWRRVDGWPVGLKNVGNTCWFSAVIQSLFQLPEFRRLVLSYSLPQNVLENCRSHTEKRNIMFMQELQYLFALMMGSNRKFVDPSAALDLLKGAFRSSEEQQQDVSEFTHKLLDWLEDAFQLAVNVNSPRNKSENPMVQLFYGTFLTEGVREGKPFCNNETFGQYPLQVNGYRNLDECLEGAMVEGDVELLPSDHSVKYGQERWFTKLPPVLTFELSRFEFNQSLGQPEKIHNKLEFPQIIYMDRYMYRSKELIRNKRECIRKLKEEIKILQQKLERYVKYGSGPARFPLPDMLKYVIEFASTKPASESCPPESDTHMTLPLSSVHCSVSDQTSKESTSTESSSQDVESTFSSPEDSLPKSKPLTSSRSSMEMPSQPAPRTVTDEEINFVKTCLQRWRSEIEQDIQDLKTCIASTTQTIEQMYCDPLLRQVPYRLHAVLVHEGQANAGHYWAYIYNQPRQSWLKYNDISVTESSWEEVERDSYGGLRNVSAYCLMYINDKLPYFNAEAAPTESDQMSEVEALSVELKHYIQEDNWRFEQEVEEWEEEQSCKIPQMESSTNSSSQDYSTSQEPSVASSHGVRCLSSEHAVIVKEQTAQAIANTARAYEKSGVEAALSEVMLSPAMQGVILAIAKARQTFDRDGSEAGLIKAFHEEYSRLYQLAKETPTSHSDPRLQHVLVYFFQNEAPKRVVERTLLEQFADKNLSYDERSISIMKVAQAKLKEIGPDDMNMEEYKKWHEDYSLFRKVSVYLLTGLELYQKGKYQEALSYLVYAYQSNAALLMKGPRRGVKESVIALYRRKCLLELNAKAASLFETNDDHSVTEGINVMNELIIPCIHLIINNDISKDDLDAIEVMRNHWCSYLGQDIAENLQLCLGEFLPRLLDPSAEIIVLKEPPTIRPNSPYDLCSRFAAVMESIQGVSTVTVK

SMILES	IC50
CN1CC2CN(C(=O)Nc3cccnc3)CCN2Cc2ccccc21 (stereo not given)	> 50 µM (inactive)
O=C(CCCCn1c(=O)c2ccccc2n(CC(=O)Nc2ccc(F)c(Cl)c2)c1=O)NCc1ccco1	> 50 µM (inactive)
O=C(CN1C(=O)NC2(CCCCC2)C1=O)Nc1ccc([N+](=O)[O-])cc1	33.2 µM
O=C(O)c1nccnc1C(=O)N1CCc2ccccc2C1	> 50 µM (inactive)
O=C(Nc1ccc(NS(=O)(=O)c2ccc3c4c(cccc24)CC3)cc1)c1ccccc1	37.7 µM
CCOC(=O)c1sc2nc(CC(=O)OC)nc(NCc3ccco3)c2c1C	> 50 µM (inactive)
O=C(Nc1nc2c(s1)COCC2)c1cc(-c2ccco2)[nH]n1	> 50 µM (inactive)
O=C(Nc1ccccc1)c1nc2c(s1)CCN(C(=O)c1ccccc1)CC2	> 50 µM (inactive)
O=C(Cn1c(NCc2ccccc2)nc2ccccc21)NCC(F)(F)F	46.6 µM
CC1CCc2c(sc3nc(CC#N)[nH]c(=O)c23)C1 (stereo not given)	> 50 µM (inactive)
COc1ccc(S(=O)(=O)N2CCC3(CC2)OC(=O)Nc2ccccc23)cc1	43.4 µM
Fc1ccc(CN2CCc3nc4cccnc4cc3C2)cc1	> 50 µM (inactive)
CC(=O)Nc1ccc([C@H]2OCC(=O)N(C3CCOCC3)[C@@H]2CO)cc1	> 50 µM (inactive)
Cc1ccc(S(=O)(=O)N2CCC3(CC2)NC(=O)c2ccccc2N3)c(C)c1	31.3 µM
Cc1ccc2cc(CCNC(=O)c3cccc(Br)c3)c(=O)[nH]c2c1	37.2 µM
O=C(NCc1ccc2c(c1)OCO2)c1nc(-c2ccccc2)n(-c2ccccc2)n1	> 50 µM (inactive)
CCOc1cccc(NC(=O)c2ccc(S(=O)(=O)N3CCc4ccccc4C3)cc2)c1	44.3 µM
Nc1c(-c2ccc(Cl)cc2)cnc2nc(Sc3ncc(C(F)(F)F)cc3Cl)nn12	> 50 µM (inactive)
Cc1ccc2c(c1)-c1c(c(C(=O)N3CCN(c4ccccc4)CC3)nn1C)CS2	> 50 µM (inactive)
CC1=C(c2ccc(F)cc2)S(=O)(=O)NC1=NCC(=O)Nc1cccc(F)c1	48.7 µM
O=C(Cn1ccc2ccc(N3CCOCC3)nc21)NCc1ccccc1F	> 50 µM (inactive)

SMILES	IC50
COc1ccccc1NC(=O)c1cc2c(C)nn(Cc3ccccc3)c2s1	38.1 µM
CC[C@@]1(O)C[C@H](OC2CC(N(C)C)C(OC3CC(O)C(OC4CCC(=O)C(C)O4)C(C)O3)C(C)O2)c2c(cc3c(c2O)C(=O)c2c(O)ccc(O)c2C3=O)[C@H]1C(=O)OC (stereo not given in full)	4.26 µM
CC(OC(=O)c1cn(-c2ccccc2)nc1-c1cccnc1)C(=O)Nc1cccc(S(=O)(=O)N(C)C)c1 (stereo not given)	30.9 µM
Cc1ccc2c(c1)N=C(c1ccc([N+](=O)[O-])cc1)CO2	> 50 µM (inactive)
CS(=O)(=O)NC1CCCN(C(=O)Nc2cccc3ccccc23)C1 (stereo not given)	30.5 µM
Clc1cccc(N2CCN(c3ncnc4nc[nH]c34)CC2)c1	39.5 µM
CCCCN(C)C(=O)c1cc2c(=O)n3cccc(C)c3nc2n1Cc1ccccc1	> 50 µM (inactive)
NS(=O)(=O)c1cccc(NC(=O)CN2CCCc3ccccc32)c1	> 50 µM (inactive)
CC1OC2CC(O)C1(O)C1=C2C(=O)c2c(O)c3c(c(O)c2C1=O)[C@H](C)O[C@H]1CC(=O)O[C@@H]31 (stereo not given in full)	> 50 µM (inactive)
COc1ccc(C(=O)Nc2ccc3c(c2)Sc2ncccc2C(=O)N3C)cn1	> 50 µM (inactive)
CN1C(=O)COc2ccc(NC(=O)c3cc(-c4ccccc4)on3)cc21	> 50 µM (inactive)
COc1ccc(N2C(=O)[C@@H]3[C@H]4c5ccccc5C=CN4C(C(=O)Nc4ccc5c(c4)OCO5)[C@@H]3C2=O)cc1 (stereo not given in full)	> 50 µM (inactive)
CCOc1ccc(NC(=O)c2nc3c(=O)[nH]c4cc(C)ccc4n3n2)cc1	47.5 µM
COc1ccc(CNC(=O)c2[nH]nc3c2CCc2ccccc2-3)cc1	36.1 µM
COc1ccc(C2CC(=O)Nc3n[nH]c(-c4ccccc4)c32)cc1OC (stereo not given)	33.7 µM
O=[N+]([O-])c1cccc(CSc2nnc(/C=C/c3ccccc3)o2)c1	> 50 µM (inactive)
O=C(/C=C/c1ccc(F)cc1)N1CCc2ccccc2C1	35.1 µM
COc1ccc(CCNC(=O)CCCn2c(SCC(=O)NCc3ccco3)nc3ccccc3c2=O)cc1OC	35.7 µM
O=C1/C(=C/c2cn(-c3ccccc3)nc2-c2ccc3c(c2)OCCO3)Cc2ccccc21	> 50 µM (inactive)
COC(=O)[C@]1(O)O[C@@]2(C(=O)OC)c3c(oc4cc(C)cc(O)c4c3=O)[C@H]3c4c(oc5cc(C)cc(O)c5c4=O)C[C@H]1[C@H]32	> 50 µM (inactive)
COc1cc(Cl)ccc1Oc1ncnc2sc(C)c(C)c12	> 50 µM (inactive)

Results, then the molecule that gave them:

IC50	SMILES
1.95 µM	CCOc1ccc(NC(=O)Cn2c(=O)n(CCCCCC(=O)NCc3ccc(F)cc3)c(=O)c3sccc32)cc1
2.67 µM	COc1ccc(NC(=O)Cn2cc(C(=O)c3ccc(C)cc3)c(=O)c3ccccc32)cc1
12.3 µM	CCc1c(C)c(C#N)c2nc3ccccc3n2c1N1CCN(C2CCCC2)CC1
1.77 µM	CC(=O)Nc1ccc(S(=O)(=O)NCc2ccc(C(=O)NCCc3ccc(Cl)cc3)cc2)cc1
4.45 µM	CCOc1ccccc1NC(=O)COc1cc(OC)ccc1C(=O)c1ccccc1
24.1 µM	Cn1nc(-c2nc(-c3ccccc3)no2)c2c1CCN(C(=O)C1CCCC1)C2
27.5 µM	Fc1cccc(-n2cc(-c3noc(-c4ccc[nH]4)n3)nn2)c1
8.7 µM	COc1cccc(-n2nnc(C(=O)Nc3ccc(C)c(C)c3)c2C)c1
13.9 µM	CCn1c(SCC(=O)c2c(N)n(CC(C)C)c(=O)n(C)c2=O)nnc1-c1ccccc1
24.3 µM	Cc1cccc(S(=O)(=O)N2CCc3nc4ccccc4n3CC2)c1
5.75 µM	CSc1ccccc1NC(=O)c1ccc(-n2cccn2)nn1
14.7 µM	COc1ccc(C)cc1NC(=O)C1CC(=O)Nc2nc(SCc3ccccc3)nn21 (stereo not given)
28.1 µM	COc1ccc(CCNC(=O)CSc2cn(CCNC(=O)c3ccc(F)cc3)c3ccccc23)cc1OC
12 µM	Cc1ccc(Cl)c(-n2nnc(C(=O)Nc3ccccc3C#N)c2C)c1
20.4 µM	COc1ccccc1-c1nc2c3c(C)c(C)n(Cc4cccnc4)c3ncn2n1
25.9 µM	O=C(COC(=O)c1n[nH]c2ccccc12)Nc1ccc(N2CCCCC2)cc1
16.5 µM	O=C(Cc1nnc2c(-c3nc(C4CC4)no3)cccn12)Nc1ccccc1
12.5 µM	CS(=O)(=O)N1CCCc2cc(C(=O)Nc3ccc(Oc4ccccc4)cc3)ccc21
23.6 µM	COc1ccc(-c2cc(C(=O)NC3CCCCCC3)[nH]n2)cc1S(=O)(=O)N(C)C
1.34 µM	COc1ccc(/C=C/C(=O)Nc2ccc3c(c2)OCCO3)cc1Br

IC50	SMILES
9.88 µM	CCn1c(COc2cccc(C(F)(F)F)c2)nnc1SCc1ccc(Cl)cc1
1.97 µM	COc1ccc(-c2cc(-c3ccccc3)nc(SCC(N)=O)c2C#N)cc1OC
21 µM	c1ccc(-n2nnc(-c3noc(-c4cccnc4)n3)c2-c2ccncc2)cc1
9.99 µM	COc1ccc(CNC(=O)Nc2cccc3ccccc23)cc1
21 µM	Cc1cccc(NC(=O)CN2C(=O)COc3cc(S(=O)(=O)N4CCCC4)ccc32)c1C
18.1 µM	CCCCNC(=O)C1Sc2nnc(-c3ccccc3)n2NC1c1ccccc1 (stereo not given)
20.8 µM	CC1CC(=O)c2c(cc3c(-c4c(O)cc(O)c5c(O)c6c(cc45)OC(C)CC6=O)c(O)cc(O)c3c2O)O1 (stereo not given)
15.5 µM	COc1ccc(-c2nc(SCC(=O)Nc3ccc(C(C)=O)cc3)n[nH]2)cc1
29.3 µM	O=C(COC(=O)Cn1cnc2ccccc21)Nc1ccc2c(c1)OCCO2
6.37 µM	Cc1cc(NC(=O)c2[nH]nc3c2CCc2ccccc2-3)no1
2.49 µM	Cc1c(-c2nn3c(-c4ccco4)nnc3s2)cccc1[N+](=O)[O-]
16.9 µM	Nc1ccc(NC(=O)c2cc3c(s2)CCC3)cc1[N+](=O)[O-]
27 µM	O=C(CNc1nc(Nc2ccccc2F)nc(Nc2ccccc2F)n1)Nc1ccccc1
2.13 µM	Cc1ccc(OCCn2c(=N)n(C(C)C)c3ccccc32)cc1
27.5 µM	O=C(Cn1c(=O)n(Cc2ccco2)c(=O)c2ccc(C(=O)NC3CCCC3)cc21)NCc1ccco1
6.76 µM	O=C(COC(=O)c1ccc(NS(=O)(=O)c2ccc3c(c2)OCCO3)cc1)NCc1ccc(Cl)cc1
25.8 µM	O=C(c1cc(-c2ccc(Cl)cc2)n[nH]1)N1CCN(C(=O)c2ccco2)CC1
2.27 µM	COc1ccc(COc2ccc3c(C)c(CC(=O)N4CC[C@@]5(O)CCCC[C@H]5C4)c(=O)oc3c2)cc1
26.4 µM	COc1ccc(CNC(=O)C(C)n2nc(-c3ccco3)c(-c3cc(C)no3)cc2=O)cc1 (stereo not given)
< 0.05 µM	COc1cc(Cl)ccc1Nc1ncc(C(=O)Nc2cc(OC)c(OC)c(OC)c2)c2ccccc12

IC50	SMILES
8.27 µM	Cc1ccc(C(=O)Nc2cc3c4c(c2)CC(=O)N4CCC3)cc1
5.47 µM	COc1ccccc1-c1nc(-c2nnn(Cc3ccc(C)cc3)c2C)no1
24.7 µM	Cc1ccc2[nH]c(=O)c(CN(CC3CCCO3)S(=O)(=O)c3ccccc3)cc2c1 (stereo not given)
6.02 µM	Cc1ccc(NC(=O)c2ccc(Nc3nnc(C)c4ccccc34)cc2)cc1
9.44 µM	Cc1nc2cc(NC(=O)C3CN(C(=O)c4cnccn4)C3)ccc2s1
21.4 µM	Cc1cc(C#N)c2c(C)ccc(C(C)C)cc1-2
0.594 µM	O=C(Nc1ccc2c(c1)OCCO2)C1CCC(Cn2cnc3ccccc3c2=O)CC1 (stereo not given)
24.9 µM	COc1ccc(NS(=O)(=O)c2ccc(NC(=O)Nc3ccc(Cl)cc3)cc2)cc1
19.1 µM	CC(=O)Nc1ccc(-n2cnc(C(=O)NCc3ccc(C)cc3)c2)nc1
25.9 µM	CCc1ccc(NC(=O)Cc2nnc(-c3ccc4ncccc4c3)o2)cc1
14.5 µM	COc1ccc(NC(=O)C2CC(=O)Nc3c(-c4ccc(Cl)cc4)cnn32)c(OC)c1 (stereo not given)
16.4 µM	CCc1cccc(CC)c1NC(=O)COC(=O)c1cc2cccc(OC)c2oc1=O
10.3 µM	COc1ccc(C(=O)Nc2n[nH]c(C)c2-c2cccc(C)c2)c(OC)c1
2.02 µM	CC1=C(Cn2c3cccc(=O)c-3nc3ccccc32)CCC(C)(C)C1
27.4 µM	Fc1ccc(Cn2ccc(-c3cnc(-c4ccccc4)s3)n2)cc1
6.98 µM	COc1cc(OC)cc(-n2c(=O)c3sccc3n(CC(=O)Nc3ccc(C)cc3)c2=O)c1
17.2 µM	CN1CCC(N(C)S(=O)(=O)c2ccc(NC(=O)c3cccc(OCc4ccccc4)c3)cc2)CC1
11.6 µM	Cc1ccc(Cn2nnc(-c3noc(-c4ccc[nH]4)n3)c2C)cc1
